Results: PubChem BioAssay AID248 (DTP/NCI, 2004)
Several values for one entry are separate records, joined by “and”; a condition that tells them apart may be missing. Equal values may be shown once. Toxic doses and inconclusive results are not listed. Rule as the data show it: active = T/C of 150% or more; inactive = T/C below 125%.

Test system: L1210 leukemia ip in BDF1 mice, survival T/C
Assay: NCI In Vivo Anticancer Drug Screen. Data for tumor model L1210 Leukemia (intraperitoneal) in B6D2F1 (BDF1) mice
Conditions: endpoint: mean survival time, higher = longer survival
Outline: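 In this screen, tumor-bearing mice given compound are compared to those given vehicle, and their survival values are reported as a treated-to-control quotient.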

[1] = dose: 100.0 mg/kg/injection, schedule: Q04DX002 (ip), vehicle: saline with Tween-80
[2] = dose: 200.0 mg/kg/injection, schedule: Q04DX002 (ip), vehicle: saline with Tween-80
[3] = dose: 100.0 mg/kg/injection, schedule: Q01DX001 (ip), vehicle: other
[4] = dose: 200.0 mg/kg/injection, schedule: Q01DX001 (ip), vehicle: other
[5] = dose: 400.0 mg/kg/injection, schedule: Q01DX001 (ip), vehicle: other
[6] = dose: 100.0 mg/kg/injection, schedule: Q04DX003 (ip), vehicle: saline
[7] = dose: 200.0 mg/kg/injection, schedule: Q04DX003 (ip), vehicle: saline
[8] = dose: 400.0 mg/kg/injection, schedule: Q04DX003 (ip), vehicle: saline
[9] = dose: 100.0 mg/kg/injection, schedule: Q04DX003 (ip), vehicle: saline with Tween-80
[10] = dose: 200.0 mg/kg/injection, schedule: Q04DX003 (ip), vehicle: saline with Tween-80
[11] = dose: 400.0 mg/kg/injection, schedule: Q04DX003 (ip), vehicle: saline with Tween-80
[12] = dose: 100.0 mg/kg/injection, schedule: Q01DX009 (ip), vehicle: Klucel (hydroxypropylcellulose) (HPC)
[13] = dose: 100.0 mg/kg/injection, schedule: Q04DX003 (ip), vehicle: Klucel (hydroxypropylcellulose) (HPC)
[14] = dose: 200.0 mg/kg/injection, schedule: Q01DX009 (ip), vehicle: Klucel (hydroxypropylcellulose) (HPC)
[15] = dose: 200.0 mg/kg/injection, schedule: Q04DX003 (ip), vehicle: Klucel (hydroxypropylcellulose) (HPC)
[16] = dose: 400.0 mg/kg/injection, schedule: Q01DX009 (ip), vehicle: Klucel (hydroxypropylcellulose) (HPC)
[17] = dose: 400.0 mg/kg/injection, schedule: Q04DX003 (ip), vehicle: Klucel (hydroxypropylcellulose) (HPC)

Measured: T/C

Cc1cc(O)ccc1CCC#N
inactive: dose: 100.0 mg/kg/injection, schedule: Q01DX009 (ip), vehicle: saline 96 % of control and 91 % of control | [1] 95 % of control and 101 % of control | dose: 200.0 mg/kg/injection, schedule: Q01DX009 (ip), vehicle: saline 104 % of control and 115 % of control | [2] 95 % of control and 96 % of control | dose: 400.0 mg/kg/injection, schedule: Q01DX009 (ip), vehicle: saline 96 % of control and 89 % of control | dose: 400.0 mg/kg/injection, schedule: Q04DX002 (ip), vehicle: saline with Tween-80 95 % of control and 101 % of control

CCCCCCCCCCCCCCCC[N+]1(C)CCC[N+](C)(CCCCCCCCCCCCCCCC)CC1 (stereo unspecified)
inactive: [3] 111 % of control and 90 % of control | dose: 100.0 mg/kg/injection, schedule: Q04DX002 (ip), vehicle: other 94 % of control and 106 % of control | [4] 96 % of control and 90 % of control | dose: 200.0 mg/kg/injection, schedule: Q04DX002 (ip), vehicle: other 97 % of control and 110 % of control | [5] 96 % of control and 90 % of control | dose: 400.0 mg/kg/injection, schedule: Q04DX002 (ip), vehicle: other 98 % of control and 106 % of control

C[N+]1(CCC[N+]2(C)CC3CCCCC3C2)CCOCC1 (stereo unspecified)
inactive: [6] 99 % of control | [7] 96 % of control | [8] 105 % of control

CCC(=O)c1ccc(NC(=S)Nc2ccccc2)cc1
inactive: dose: 5.0 mg/kg/injection, schedule: Q01DX009 (ip), vehicle: saline with Tween-80 104 % of control | dose: 10.0 mg/kg/injection, schedule: Q01DX009 (ip), vehicle: saline with Tween-80 97 % of control | dose: 20.0 mg/kg/injection, schedule: Q01DX009 (ip), vehicle: saline with Tween-80 101 % of control and 86 % of control | dose: 40.0 mg/kg/injection, schedule: Q01DX009 (ip), vehicle: saline with Tween-80 95 % of control and 89 % of control | dose: 80.0 mg/kg/injection, schedule: Q01DX009 (ip), vehicle: saline with Tween-80 86 % of control and 88 % of control | [6] 110 % of control | [7] 100 % of control | dose: 320.0 mg/kg/injection, schedule: Q01DX009 (ip), vehicle: saline with Tween-80 87 % of control | [8] 98 % of control

Nc1nc(N)c2nc(CBr)cnc2n1
inactive: dose: 6.25 mg/kg/injection, schedule: Q01DX009 (ip), vehicle: saline 105 % of control | dose: 12.5 mg/kg/injection, schedule: Q01DX009 (ip), vehicle: saline 88 % of control | dose: 25.0 mg/kg/injection, schedule: Q01DX009 (ip), vehicle: saline 115 % of control

O=C(Nc1ccc(Cl)cc1C(F)(F)F)OCCOc1ccc(-c2ccccc2)cc1
inactive: dose: 100.0 mg/kg/injection, schedule: Q01DX009 (ip), vehicle: saline with Tween-80 98 % of control | dose: 200.0 mg/kg/injection, schedule: Q01DX009 (ip), vehicle: saline with Tween-80 96 % of control | dose: 400.0 mg/kg/injection, schedule: Q01DX009 (ip), vehicle: saline with Tween-80 96 % of control

O=C(O)C1=C/C(=C\C=[N+]2c3cc(O)c(OC4OC(CO)C(O)C(O)C4O)cc3CC2C(=O)[O-])CC(C(=O)O)N1 (stereo unspecified)
inactive: [9] 97 % of control | [10] 94 % of control | [11] 95 % of control

O=C1Cc2ccccc2C(=O)N1
inactive: dose: 25.0 mg/kg/injection, schedule: Q01DX Z (ip), vehicle: carboxymethylcellulose (CMC) 91 % of control | dose: 40.0 mg/kg/injection, schedule: Q01DX Z (ip), vehicle: carboxymethylcellulose (CMC) 104 % of control | dose: 60.0 mg/kg/injection, schedule: Q01DX Z (ip), vehicle: carboxymethylcellulose (CMC) 112 % of control | dose: 90.0 mg/kg/injection, schedule: Q01DX Z (ip), vehicle: carboxymethylcellulose (CMC) 100 % of control | dose: 100.0 mg/kg/injection, schedule: Q04DX003 (ip), vehicle: saline sonified 100 % of control | dose: 200.0 mg/kg/injection, schedule: Q04DX003 (ip), vehicle: saline sonified 99 % of control | dose: 400.0 mg/kg/injection, schedule: Q04DX003 (ip), vehicle: saline sonified 100 % of control

NC(N)=N/N=C(/c1ccccc1)c1ccccc1F
inactive: dose: 15.0 mg/kg/injection, schedule: Q01DX Z (ip), vehicle: saline 111 % of control | dose: 30.0 mg/kg/injection, schedule: Q01DX Z (ip), vehicle: saline 100 % of control | dose: 60.0 mg/kg/injection, schedule: Q01DX Z (ip), vehicle: saline 108 % of control | dose: 120.0 mg/kg/injection, schedule: Q01DX Z (ip), vehicle: saline 103 % of control | dose: 120.0 mg/kg/injection, schedule: Q01DX Z (oral), vehicle: saline 105 % of control | dose: 240.0 mg/kg/injection, schedule: Q01DX Z (ip), vehicle: saline 95 % of control | dose: 240.0 mg/kg/injection, schedule: Q01DX Z (oral), vehicle: saline 105 % of control | dose: 480.0 mg/kg/injection, schedule: Q01DX Z (ip), vehicle: saline 96 % of control | dose: 480.0 mg/kg/injection, schedule: Q01DX Z (oral), vehicle: saline 105 % of control

CC(=N/N(Cc1ccccc1)c1ccccc1)/C(C)=N/N(Cc1ccccc1)c1ccccc1
inactive: [3] 89 % of control | [4] 89 % of control | [5] 89 % of control

Nn1nnc2ccccc21
inactive: dose: 100.0 mg/kg/injection, schedule: Q01DX001 (ip), vehicle: saline 95 % of control | dose: 200.0 mg/kg/injection, schedule: Q01DX001 (ip), vehicle: saline 97 % of control | dose: 400.0 mg/kg/injection, schedule: Q01DX001 (ip), vehicle: saline 97 % of control

O=NN(c1ccccc1)c1ccc(N(N=O)c2ccccc2)cc1
inactive: dose: 50.0 mg/kg/injection, schedule: Q01DX009 (ip), vehicle: Klucel (hydroxypropylcellulose) (HPC) 97 % of control | [12] 96 % of control | [13] 93 % of control | [14] 100 % of control | [15] 100 % of control | [16] 96 % of control | [17] 96 % of control

O=Cc1[nH]c(=S)[nH]c(=O)c1Cc1ccc([N+](=O)[O-])cc1
inactive: [9] 93 % of control | [10] 92 % of control | [11] 100 % of control

CCOC(=O)c1cnc(SC)nc1Nc1ccc(OC)cc1
inactive: [12] 96 % of control | [13] 95 % of control | [14] 91 % of control | [15] 98 % of control | [16] 94 % of control | [17] 90 % of control

CC12CCC3c4ccc(OC(=O)Cc5ccc(N(CCCl)CCCl)cc5)cc4CCC3C1CCC2=O (stereo unspecified)
inactive: dose: 100.0 mg/kg/injection, schedule: Q01DX001 (sc), vehicle: steriod suspending solution 97 % of control | dose: 200.0 mg/kg/injection, schedule: Q01DX001 (sc), vehicle: steriod suspending solution 103 % of control | dose: 400.0 mg/kg/injection, schedule: Q01DX001 (sc), vehicle: steriod suspending solution 103 % of control

C=C(C)CC1(CC2SCCCS2)SCCCS1
inactive: dose: 25.0 mg/kg/injection, schedule: Q04DX002 (ip), vehicle: saline with Tween-80 98 % of control | dose: 50.0 mg/kg/injection, schedule: Q04DX002 (ip), vehicle: saline with Tween-80 106 % of control | [1] 88 % of control | [2] 98 % of control

COC(=O)c1ccccc1N=NNc1ccc2c(=O)c3ccccc3[nH]c2c1
inactive: [6] 95 % of control | [7] 86 % of control | [8] 86 % of control
